Where two headings read alike, the source gives them in different places.
Test system: PKMYT1 (CDK1 pThr14) in FUOV1 cells
Test: PKMYT1 cell-based activity assay, CDK1 pThr14 AlphaLISA in FUOV1 cells
Conditions: read-out: FUOV-1 CDK1 pThr14 IC50
Summary of the method: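 IC50 was derived from AlphaLISA signal (excitation 680 nm, emission 615 nm) for phospho-Thr14 CDK1 in lysates. The detection antibodies were rabbit anti-pThr14 and mouse anti-total CDK1, each at 5 nM. FUOV1 ovarian cells were exposed to compound for 2 hours before lysis.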

Cc1ccc(-c2nc(C(N)=O)c(N)c(-c3c(F)ccc4[nH]ncc34)n2)c(Nc2ncccn2)n1 [Compound 953]
IC50 (2 h, 2 hours with compound): 0.153 µM

CCc1cccnc1Nc1ncccc1-c1nc(C(N)=O)c(N)c(-c2c(C)ccc3[nH]ncc23)n1 [Compound 730]
IC50 (2 h, 2 h compound incubation): 0.019 µM

Cc1ccc2[nH]ncc2c1-c1cc2c(oc3ccc(OC4CCOCC4)nc32)c(C(N)=O)c1N [Compound 635]
IC50 (2 h, 2 h compound incubation): 0.402 µM

Cc1ccc2[nH]ncc2c1-c1nc(-c2ccc(F)cc2Nc2cc(C(C)(C)O)ccn2)nc(C(N)=O)c1N [Compound 633]
IC50 (2 h, 2 h compound incubation): 0.998 µM

Cc1ccc2[nH]ncc2c1-c1nc(-c2cc(F)cnc2NC2CC(C)(C)C2)nc(C(N)=O)c1N [Compound 732]
IC50 (2 h, 2 h compound incubation): 0.534 µM

Cc1ccc2[nH]ncc2c1-c1nc(-c2cccnc2N[C@H]2CCOC[C@@H]2F)nc(C(N)=O)c1N [Compound 648]
IC50 (2 h, 2 h compound incubation): 0.051 µM

CCc1ccc(-c2nc(C(N)=O)c(N)c(-c3c(C)ccc4[nH]ncc34)n2)c(Nc2ncccc2F)n1 [Compound 975]
IC50 (2 h, 2 hours with compound): 0.014 µM

Cc1cncc(Nc2cc(F)ccc2-c2nc(C(N)=O)c(N)c(-c3c(C)ccc4[nH]ncc34)n2)c1 [Compound 666]
IC50 (2 h, 2 h compound incubation): 0.038 µM

Cc1ccc2[nH]ncc2c1-c1nc(-c2ccc(Cl)nc2Nc2ncccc2F)nc(C(N)=O)c1N [Compound 781]
IC50 (2 h, 2 h compound incubation): 0.005 µM

Cc1ccc2[nH]ncc2c1-c1nc(-c2ccc(Cl)nc2Nc2cccnn2)nc(C(N)=O)c1N [Compound 832]
IC50 (2 h, 2 hours with compound): 0.217 µM

Cc1ccc2[nH]ncc2c1-c1nc(-c2ccc(F)cc2Nc2ncncc2F)nc(C(N)=O)c1N [Compound 526]
IC50 (2 h, 2 h compound incubation): 0.004 µM

Cc1ccc2[nH]ncc2c1-c1nc(-c2cccnc2NC2CC2)nc(C(N)=O)c1N [Compound 914, 5-amino-2-(2-(cyclopropylamino)pyridin-3-yl)-6-(5-methyl-1H-indazol-4-yl)pyrimidine-4-carboxamide]
IC50 (2 h, 2 hours with compound): 0.054 µM

Cc1ccc2[nH]ncc2c1-c1cc2c(oc3ccc(N4CCOCC4)nc32)c(C(N)=O)c1N [Compound 652]
IC50 (2 h, 2 h compound incubation): 0.266 µM

Cc1ccc(-c2nc(C(N)=O)c(N)c(-c3c(Cl)ccc4[nH]ncc34)n2)c(Nc2ncccn2)n1 [Compound 950]
IC50 (2 h, 2 hours with compound): 0.042 µM

Cc1ccc2[nH]ncc2c1-c1nc(-c2cccnc2NC2CC(=O)N(C)C2)nc(C(N)=O)c1N (centres unmarked) [Compound 552]
IC50 (2 h, 2 h compound incubation): 0.245 µM

Cc1ccc2[nH]ncc2c1-c1nc(-c2cccnc2N[C@H]2CCOC[C@H]2F)nc(C(N)=O)c1N [Compound 644]
IC50 (2 h, 2 h compound incubation): 0.01 µM

NC(=O)c1nc(-c2ccc(Cl)nc2Nc2ncccc2F)nc(-c2c(F)ccc3[nH]ncc23)c1N [Compound 965]
IC50 (2 h, 2 hours with compound): 0.008 µM

Cc1ccc2[nH]ncc2c1-c1nc(-c2cn(C)nc2Nc2ccccn2)nc(C(N)=O)c1N [Compound 916, 5-amino-6-(5-methyl-1H-indazol-4-yl)-2-(1-methyl-3-(pyridin-2-ylamino)-1H-pyrazol-4-yl)pyrimidine-4-carboxamide]
IC50 (2 h, 2 hours with compound): 0.926 µM

Cc1ccc2[nH]ncc2c1-c1nc(-c2ccncc2Nc2ncccn2)nc(C(N)=O)c1N [Compound 951]
IC50 (2 h, 2 hours with compound): 0.016 µM

Cc1ccc2[nH]ncc2c1-c1nc(-c2cc(F)ncc2NC2CC(F)(F)C2)nc(C(N)=O)c1N [Compound 844]
IC50 (2 h, 2 hours with compound): 0.038 µM

Cc1cnc(C)c(Nc2ncccc2-c2nc(C(N)=O)c(N)c(-c3c(C)ccc4[nH]ncc34)n2)n1 [Compound 718]
IC50 (2 h, 2 h compound incubation): 0.039 µM

Cc1ccc2[nH]ncc2c1-c1nc(-c2cccnc2Nc2cncnc2C)nc(C(N)=O)c1N [Compound 717]
IC50 (2 h, 2 h compound incubation): 0.216 µM

Cc1ccc2[nH]ncc2c1-c1nc(-c2cccnc2Nc2ncccc2C(F)F)nc(C(N)=O)c1N [Compound 720]
IC50 (2 h, 2 h compound incubation): 0.007 µM

Cc1ccc2[nH]ncc2c1-c1nc(-c2cccnc2NC2CCCOC2)nc(C(N)=O)c1N (centres unmarked) [Compound 582]
IC50 (2 h, 2 h compound incubation): 0.015 µM

Cc1ccc2[nH]ncc2c1-c1nc(-c2ccc(C(F)F)nc2Nc2ncccn2)nc(C(N)=O)c1N [Compound 928]
IC50 (2 h, 2 hours with compound): 0.144 µM

Cc1ccc2[nH]ncc2c1-c1nc(-c2cc(F)cnc2NCC2(O)CC2)nc(C(N)=O)c1N [Compound 692]
IC50 (2 h, 2 h compound incubation): 0.195 µM

Cc1ccc2[nH]ncc2c1-c1nc(-c2cccnc2NC[C@H]2CCO2)nc(C(N)=O)c1N [Compound 649]
IC50 (2 h, 2 h compound incubation): > 10 µM

Cc1ccc(-c2nc(C(N)=O)c(N)c(-c3c(C)ccc4[nH]ncc34)n2)c(Nc2ncccc2C)n1 [Compound 687]
IC50 (2 h, 2 h compound incubation): 0.003 µM

Cc1cccnc1Nc1nc(Cl)ccc1-c1nc(C(N)=O)c(N)c(-c2c(C)ccc3[nH]ncc23)n1 [Compound 736, 5-amino-2-(6-chloro-2-((3-methylpyridin-2-yl)amino)pyridin-3-yl)-6-(5-methyl-1H-indazol-4-yl)pyrimidine-4-carboxamide]
IC50 (2 h, 2 h compound incubation): 0.006 µM

Cc1ccc2[nH]ncc2c1-c1nc(-c2cccnc2N[C@H]2[C@@H]3COC[C@@H]32)nc(C(N)=O)c1N [Compound 545]
IC50 (2 h, 2 h compound incubation): 0.043 µM

N#Cc1cccnc1Nc1cc(F)ccc1-c1nc(C(N)=O)c(N)c(-c2c(F)ccc3[nH]ncc23)n1 [Compound 968]
IC50 (2 h, 2 hours with compound): 0.004 µM

Cc1ccc2[nH]ncc2c1-c1nc(-c2cc(F)cnc2NCC(F)(F)F)nc(C(N)=O)c1N [Compound 747]
IC50 (2 h, 2 h compound incubation): 0.087 µM

Cc1ccc(-c2nc(C(N)=O)c(N)c(-c3c(C)ccc4[nH]ncc34)n2)c(Nc2nnccc2C)n1 [Compound 628]
IC50 (2 h, 2 h compound incubation): 0.041 µM

Cc1cc(F)c2[nH]ncc2c1-c1nc(-c2ccc(C(F)F)nc2Nc2ncccn2)nc(C(N)=O)c1N [Compound 907]
IC50 (2 h, 2 hours with compound): 0.214 µM

Cc1c(F)cc2[nH]ncc2c1-c1nc(-c2ccc(F)nc2Nc2nc(C(F)F)ccc2F)nc(C(N)=O)c1N [Compound 858]
IC50 (2 h, 2 hours with compound): 0.007 µM

Cc1ccc2[nH]ncc2c1-c1nc(-c2ccc(F)cc2Nc2ccncn2)nc(C(N)=O)c1N [Compound 513]
IC50 (2 h, 2 h compound incubation): 0.016 µM

Cc1ccc2[nH]ncc2c1-c1cc2c(oc3ccc(OCC(F)(F)F)nc32)c(C(N)=O)c1N [Compound 560]
IC50 (2 h, 2 h compound incubation): 7.04 µM

Cc1ccc2[nH]ncc2c1-c1nc(-c2cc(F)cnc2N[C@H]2COC[C@H]2O)nc(C(N)=O)c1N [Compound 815]
IC50 (2 h, 2 hours with compound): 0.511 µM

Cc1cnc(C)c(Nc2cc(C#N)ccc2-c2nc(C(N)=O)c(N)c(-c3c(C)ccc4[nH]ncc34)n2)n1 [Compound 750]
IC50 (2 h, 2 h compound incubation): 0.073 µM

Cc1ccc2[nH]ncc2c1-c1nc(-c2cnncc2NCC(F)(F)F)nc(C(N)=O)c1N [Compound 669]
IC50 (2 h, 2 h compound incubation): > 10 µM

Cc1cc(Nc2cc(F)ccc2-c2nc(C(N)=O)c(N)c(-c3c(C)ccc4[nH]ncc34)n2)ccn1 [Compound 564]
IC50 (2 h, 2 h compound incubation): 0.015 µM

Cc1ccc2[nH]ncc2c1-c1nc(-c2cc(F)c(F)cc2NCC2(C)COC2)nc(C(N)=O)c1N [Compound 503]
IC50 (2 h, 2 h compound incubation): 0.023 µM

Cc1cc(F)c2[nH]ncc2c1-c1nc(-c2ccc(F)nc2Nc2ncccc2F)nc(C(N)=O)c1N [Compound 864]
IC50 (2 h, 2 hours with compound): 0.009 µM

Cc1ccc2[nH]ncc2c1-c1nc(-c2cc(F)cnc2N[C@@H]2CCOC[C@H]2O)nc(C(N)=O)c1N [Compound 799, 5-amino-2-(5-fluoro-2-(((3S,4R)-3-hydroxytetrahydro-2H-pyran-4-yl)amino)pyridin-3-yl)-6-(5-methyl-1H-indazol-4-yl)pyrimidine-4-carboxamide]
IC50 (2 h, 2 hours with compound): > 10 µM

Cc1ccc2[nH]ncc2c1-c1nc(-c2ccc(Cl)nc2Nc2nccnc2C)nc(C(N)=O)c1N [Compound 780]
IC50 (2 h, 2 h compound incubation): 0.025 µM

Cc1ccc2[nH]ncc2c1-c1nc(-c2ccccc2NC2CC(O)(C(F)(F)F)C2)nc(C(N)=O)c1N (centres unmarked) [Compound 882]
IC50 (2 h, 2 hours with compound): 0.049 µM

Cc1ccc2[nH]ncc2c1-c1nc(-c2cccnc2Nc2cccnc2)nc(C(N)=O)c1N [Compound 768]
IC50 (2 h compound incubation): 0.122 µM

Cc1ccnc(Nc2c(F)cccc2-c2nc(C(N)=O)c(N)c(-c3c(C)ccc4[nH]ncc34)n2)n1 [Compound 776, 5-amino-2-(3-fluoro-2-((4-methylpyrimidin-2-yl)amino)phenyl)-6-(5-methyl-1H-indazol-4-yl)pyrimidine-4-carboxamide]
IC50 (2 h, 2 h compound incubation): 1.13 µM

[2H]C([2H])([2H])c1ccc2[nH]ncc2c1-c1nc(-c2ccc(C3CC3)nc2Nc2ncccn2)nc(C(N)=O)c1N [Compound 974, 5-amino-2-(6-cyclopropyl-2-(pyrimidin-2-ylamino)pyridin-3-yl)-6-(5-(methyl-d3)-1H-indazol-4-yl)pyrimidine-4-carboxamide]
IC50 (2 h, 2 hours with compound): 0.186 µM

Cc1ccc2[nH]ncc2c1-c1nc(-c2cc(F)ccc2Nc2cnn(C)c2)nc(C(N)=O)c1N [Compound 521]
IC50 (2 h, 2 h compound incubation): 0.582 µM

Cc1ccc2[nH]ncc2c1-c1nc(-c2cccnc2NC2CCOC(C)(C)C2)nc(C(N)=O)c1N (centres unmarked) [Compound 592]
IC50 (2 h, 2 h compound incubation): 0.603 µM

Cc1ccc2[nH]ncc2c1-c1nc(-c2ccc(F)cc2Nc2cccnn2)nc(C(N)=O)c1N [Compound 515]
IC50 (2 h, 2 h compound incubation): 0.011 µM

COc1cnnc(Nc2cc(F)ccc2-c2nc(C(N)=O)c(N)c(-c3c(C)ccc4[nH]ncc34)n2)c1 [Compound 566]
IC50 (2 h, 2 h compound incubation): 0.076 µM

[2H]C([2H])([2H])c1ccc2[nH]ncc2c1-c1nc(-c2ccc(Cl)nc2Nc2ncccn2)nc(C(N)=O)c1N [Compound 946]
IC50 (2 h, 2 hours with compound): 0.051 µM

Cc1ccc2[nH]ncc2c1-c1nc(-c2cccnc2NCC2COC2)nc(C(N)=O)c1N [Compound 676]
IC50 (2 h, 2 h compound incubation): > 10 µM

NC(=O)c1nc(-c2ccc(F)cc2Nc2ncccn2)nc(-c2c(Cl)ccc3[nH]ncc23)c1N [Compound 949]
IC50 (2 h, 2 hours with compound): 0.05 µM

Cc1ccc2[nH]ncc2c1-c1nc(-c2cc(F)cnc2NC2COC2)nc(C(N)=O)c1N [Compound 712]
IC50 (2 h, 2 h compound incubation): 0.066 µM

Cc1cc(F)c2[nH]ncc2c1-c1nc(-c2ccc(F)nc2Nc2nc(C(F)F)ccc2F)nc(C(N)=O)c1N [Compound 867]
IC50 (2 h, 2 hours with compound): 0.014 µM

Cc1cc(F)c2[nH]ncc2c1-c1nc(-c2ccc(F)nc2Nc2nc(F)ccc2F)nc(C(N)=O)c1N [Compound 879]
IC50 (2 h, 2 hours with compound): 0.007 µM

Cc1csc(Nc2cc(F)ccc2-c2nc(C(N)=O)c(N)c(-c3c(C)ccc4[nH]ncc34)n2)n1 [Compound 588]
IC50 (2 h, 2 h compound incubation): 0.045 µM

Cc1ccc2[nH]ncc2c1-c1nc(-c2cc(F)cnc2N[C@@H](C)C2CC2)nc(C(N)=O)c1N [Compound 710]
IC50 (2 h, 2 h compound incubation): 0.019 µM

Cc1ccc2[nH]ncc2c1-c1nc(-c2cc(F)c(F)cc2NC2CCCC2(C)C)nc(C(N)=O)c1N (centres unmarked) [Compound 488]
IC50 (2 h, 2 h compound incubation): 0.861 µM

From patent US20250304537A1 (Repare Therapeutics Inc., priority 2022, published 2025)
